Data: article PMC7594079, “Insights into the Function and Evolution of Taste 1 Receptor Gene Family in the Carnivore Fish Gilthead Seabream (Sparus aurata)” (International Journal of Molecular Sciences, 2020)

Tests used:
saT1R3/R3 = details: cells transfected with saT1R3 alone (double amount)
Source text: (§1) Previous studies have reported that heterodimeric coupling of saT1R complexes may not be the only mode of functional activation since these subunits, especially T1R3, can also couple as homodimers.
(§2) Figure 8 Comparisons of proline Log-dose response curves of activation in heterologous transfections of hetero- and homo-dimeric saT1R combinations of saT1R1/R3 (black dots), saT1R2a/R3 (white dots), saT1R2b/3 (black triangles), saT1R1/R1 (white triangles) and saT1R3/R3 (black squares). Response is measured as RLU mean ± SEM of four independent determinations normalized to the mean response of the same transfections stimulated with reduced assay medium (BME + 1% FBS), expressed as percentage relative to basal levels (BL).
(§3) saT1Rs (saT1R1, saT1R2a, saT1R2b saT1R3) and saGαi1-2 genes were RT-PCR amplified using 5’ and 3’ flanking primers carrying HindIII and XhoI restriction sites, respectively. Gel-purified fragments were cloned into pGEM-T Easy vectors, re-sequenced, digested and subcloned into pcDNA™3 (Invitrogen, Carlsbad, CA, USA). Effective saT1R cloning into pcDNA™3 was further verified by HindIII/XhoI digestion. […]

saT1R1/R1 = details: cells transfected with saT1R1 alone (double amount)
Source text: as §1, §2, §3

**Q.** `O=C(O)[C@@H]1CCCN1` [Pro, Proline] was tested. Which “response to Pro stimulation” value (saT1R3/R3) did it give?
**A.** did not respond

**Q.** What about the “response to Pro stimulation” value (saT1R1/R1) of the same compound?
**A.** did not respond
